Assay results from patent publication US10406120B2, “Methods and compositions for treating kidney disorders” (Golden Biotechnology Corporation, priority 2013, dated 2019).

Key:
[1] = system: NO; test: FSGS model: NO determination; type: in vivo, BALB/c mice; conditions: FSGS mice
Method: (§1) Experiments described herein were performed on 8-week-old female BALB/c mice. The FSGS mice were injected intravenously with a single dose of adriamycin (0.1 mg/10 g body weight). The mice were given Compound 1 six hours before adriamycin injection by gavage daily till sacrifice. BALB/c mice intraperitoneal injected with normal saline were used as normal controls, while ASLN mice given vehicle (corn oil) by gavage were used as disease controls. Mice were killed at day 7, 14, or 21 after disease induction, and spleen, renal cortical tissue, and blood samples collected and stored appropriately until analysis. All animal experiments were performed with the ethical approval of the Institutional Animal Care and Use Committee of The National Defense Medical Center, Taiwan and performed according to the ethical rules in the NIH Guide for the Care and Use of Laboratory Animals.
NO levels in serum were detected with NO Detection kit (iNtRON Biotechnology, Seongnam, Korea), based on diazotization (Griess method), according to the manufacturer's instructions.

[2] = system: Nrf2; test: FSGS model: Western blot of nuclear Nrf2 in kidney; type: in vivo, BALB/c mice; conditions: FSGS mice, day 14 to day 21, vs control FSGS mice or normal controls
Method: as §1
The preparation of cytoplasmic and nuclear proteins of renal tissues was extracted using the Nuclear Extract Kit (Active Motif, Tokyo, Japan) according to the manufacturer's instructions. Target proteins in the cytoplasmic and/or nuclear fractions of kidney tissue were measured by Western blot analysis using rabbit antibodies against mouse Nrf2, or p47^phox (Santa Cruz). […]

[3] = system: mononuclear leukocytes; test: AcP-IgAN model: leukocyte infiltration in the kidney (IF/IHC); type: in vivo, B cell-deficient mice; conditions: AcP-IgAN mice
Method: (§2) B cell-deficient mice (B6.129S2-Igh-6tm1Cgn/J) were obtained from the Academia Sinica (Professor John T. Kung, Institute of Molecular Biology), and maintained at the animal center of the National Defense Medical Center, Taipei, Taiwan. AcP-IgAN was induced in the mice by daily injection of purified IgA anti-phosphorylcholine antibodies and pneumococcal C-polysaccharide (PnC) as described previously (Chao, et al., Kidney Int. 70:283-297; 2006). All animal experiments were performed with the approval of the Institutional Animal Care and Use Committee of The National Defense Medical Center, Taiwan, and were consistent with the NIH Guide for the Care and Use of Laboratory Animals.
For IHC, formalin fixed and paraffin embedded tissue sections or frozen sections were incubated with against IL-6 (R&D Systems, MN), MCP-1 (Santa Cruz, Calif.), F4/80 (monocytes/macrophages; Serotec, N.C.), collagen IV (Southern Biotech, AL), TGF-β1 (Santa Cruz), phopsho-NFκB p65 (Cell Signaling, MA), CD3 (pan-T cell; Serotec), CD4 (T helper cell; BioLegend, CA), CD8 (cytotoxic T cell), CD11b (macrophages/neutrophils), or CD11c (dendritic cells) (BD Biosciences, CA) antibodies. The FITC-conjugated, Alexa Fluor 488-conjugated (Invitrogen, CA) or horseradish peroxidase (HRP) conjugated secondary antibodies (DAKO, Denmark) were then applied to the sections. […]

[4] = system: NLRP3; test: AcP-IgAN model: renal NLRP3 mRNA and protein; type: in vivo, B cell-deficient mice; conditions: AcP-IgAN mice
Method: as §2
(§3) Total cortical kidney RNA was extracted with TriZOL reagents (Invitrogen) from cortical tissue of the kidney. For first-strand cDNA synthesis, 1.5 μg of total RNA was used in a single-round reverse transcriptase reaction. The reaction mixture consisted of 0.9 μl of Oligo (dT) 12 to 18 primer, 1.0 mM deoxyribonucleotide triphosphate (dNTP), 1 μl first strand buffer, 0.4 mM dithiothreitol, 80 U of RNaseout recombinant ribonuclease inhibitor, and 300 U of superscript II RNase H (Invitrogen). Real-time PCR was performed on an ABI Prism 7700 Sequence Detection System (Applied Biosystems, CA). All of the probes and primers were Assays-on-Demand Gene expression products (Applied Biosystems). Real-time PCR reactions were using 10 μl of cDNA, 12.5 μl of TaqMan Universal PCR Master Mix (Applied Biosystems), and 1.25 μl of the specific probe/primer mixed in a total volume of 25 μl. The thermal cycler conditions were as follows: 2 min at 50° C., 10 min at 95° C., 40 cycles of denaturation (15 s at 95° C.), and combined annealing/extension (1 min at 60° C.).
Each protein sample was run on a 10% SDS-PAGE gel. […] The membrane-bound antibody detected was incubated with chemiluminescent reagent plus (PerkinElmer Life Sciences, MA) and captured on x-ray film.

[5] = system: IL-18; test: AcP-IgAN model: renal IL-18 mRNA and protein; type: in vivo, B cell-deficient mice; conditions: AcP-IgAN mice
Method: as §2
as §3, with “Real-time PCR reactions were using 10 μl of cDNA, 12.5 μl of TaqMan Universal PCR Master Mix (Applied Biosystems), and 1.25 μl of the specific probe/primer mixed in a total volume of 25 μl. The thermal cycler conditions were as follows: 2 min at 50° C., 10 min at 95° C., 40 cycles of denaturation (15 s at 95° C.), and combined annealing/extension (1 min at 60° C.).” left out

COC1=C(OC)[C@H](O)[C@H](C/C=C(\C)CC/C=C(\C)CCC=C(C)C)[C@@H](C)C1=O [Compound 1, Antroquinonol]
urine levels of NO ([1]; day 7, among normal control, FSGS+vehicle and FSGS+antroq mice): no detectable difference
serum NO levels ([1]; day 7 to day 21, vs control FSGS mice): significantly suppressed
urine NO levels ([1]; day 14 to day 21, vs control FSGS mice): effectively blunted
Nrf2 translocation into nuclei [2]: strongly augmented
infiltration of pan-T cells, neutrophils and monocytes/macrophages in the kidney ([3]; day 3): no detectable signals
infiltration of inflammatory cells (CD3^+, CD4^+, CD8^+, CD11c+, F4/80+, CD11b+) in the kidney ([3]; day 28, vs AcP-IgAN mice): significantly decreased infiltration
protein levels of NLRP3 in the kidney (increase) ([4]; both day 3 and day 28, vs AcP-IgAN mice): significantly inhibited
renal NLRP3 mRNA expression levels ([4]; day 3): no effects
renal mRNA levels of NLRP3 ([4]; day 28, vs control AcP-IgAN mice): substantially reduced
renal mRNA expression levels of IL-18 (elevation) ([5]; day 3 until day 28, real-time PCR): greatly inhibited
renal IL-18 protein production ([5]; only at day 28): significantly inhibited
